Experimental data as given in patent US20130310362A1, “FUSED PYRIMIDINES” (BAYER PHARMA AKTIEGESELLSCHAFT, priority 2009, published 2013).

Experiments:
[1] = target: T1, human recombinant kinase full-length Akt1 (Homo sapiens, UniProt P31749); experiment: Akt1 kinase assay (TR-FRET); type: biochemical; details: 10 μM ATP, 1 μM peptide substrate, 60 min at 22° C.; read-out: IC50 Akt1 Biological Assay 1.0)
T1 construct: human recombinant kinase full-length Akt1; His; purchased Invitrogen PV 3599; host or cells: insect cells
T1 sequence (P31749 whole entry): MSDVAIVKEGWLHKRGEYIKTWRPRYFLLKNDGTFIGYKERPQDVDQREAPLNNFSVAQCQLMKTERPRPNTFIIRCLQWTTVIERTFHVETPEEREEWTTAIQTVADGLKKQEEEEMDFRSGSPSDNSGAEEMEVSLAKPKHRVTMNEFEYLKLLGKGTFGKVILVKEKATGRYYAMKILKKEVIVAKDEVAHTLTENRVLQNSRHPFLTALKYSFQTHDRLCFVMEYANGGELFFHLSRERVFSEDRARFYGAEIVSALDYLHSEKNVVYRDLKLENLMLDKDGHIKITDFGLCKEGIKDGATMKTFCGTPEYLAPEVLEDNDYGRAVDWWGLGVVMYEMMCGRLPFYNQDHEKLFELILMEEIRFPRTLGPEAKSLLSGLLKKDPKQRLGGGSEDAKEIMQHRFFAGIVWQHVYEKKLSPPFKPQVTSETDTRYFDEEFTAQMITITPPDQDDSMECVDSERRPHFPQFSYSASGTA
Text: Biological Assay 1.0: Akt1 Kinase Assay
Akt1 inhibitory activity of compounds of the present invention may be quantified employing the Akt1 TR-FRET assay as described in the following paragraphs.
His-tagged human recombinant kinase full-length Akt1 expressed in insect cells was purchased form Invitrogen (part number PV 3599). As substrate for the kinase reaction the biotinylated peptide biotin-Ahx-KKLNRTLSFAEPG (C-terminus in amide form) was used which can be purchased e.g. from the company Biosynthan GmbH (Berlin-Buch, Germany).
(§1) For the assay 50 nl of a 100 fold concentrated solution of the test compound in DMSO was pipetted into a black low volume 384 well microtiter plate (Greiner Bio-One, Frickenhausen, Germany), 2 μl of a solution of Akt1 in assay buffer [50 mM TRIS/HCl pH 7.5, 5 mM MgCl2, 1 mM dithiothreitol, 0.02% (v/v) Triton X-100 (Sigma)] were added and the mixture was incubated for 15 min at 22° C. to allow pre-binding of the test compounds to the enzyme before the start of the kinase reaction. Then the kinase reaction was started by the addition of 3 μl of a solution of adenosine-tri-phosphate (ATP, 16.7 μM=>final conc. in the 5 μl assay volume is 10 μM) and substrate (1.67 μM=>final conc. in the 5 μl assay volume is 1 μM) in assay buffer and the resulting mixture was incubated for a reaction time of 60 min at 22° C. The concentration of Akt1 in the assay was adjusted depending of the activity of the enzyme lot and was chosen appropriate to have the assay in the linear range, typical enzyme concentrations were in the range of about 0.05 ng/μl (final conc. in the 5 μl assay volume).
(§2) The reaction was stopped by the addition of 5 μl of a solution of HTRF detection reagents (200 nM streptavidine-XL665 [Cisbio] and 1.5 nM anti-phosho-Serine antibody [Millipore, cat. #35-001] and 0.75 nM LANCE Eu-W 1024 labeled anti-mouse IgG antibody [Perkin Elmer]) in an aqueous EDTA-solution (100 mM EDTA, 0.1% (w/v) bovine serum albumin in 50 mM HEPES/NaOH pH 7.5). The resulting mixture was incubated 1 h at 22° C. to allow the binding of the biotinylated phosphorylated peptide to the streptavidine-XL665 and the antibodies. Subsequently the amount of phosphorylated substrate was evaluated by measurement of the resonance energy transfer from the anti-mouse-IgG-Eu-Chelate to the streptavidine-XL665. Therefore, the fluorescence emissions at 620 nm and 665 nm after excitation at 350 nm was measured in a HTRF reader, e.g. a Rubystar (BMG Labtechnologies, Offenburg, Germany) or a Viewlux (Perkin-Elmer). The ratio of the emissions at 665 nm and at […] was taken as the measure for the amount of phosphorylated substrate. The data were normalised (enzyme reaction without inhibitor=0% inhibition, all other assay components but no enzyme=100% inhibition). Normally test compound were tested on the same microtiter plate at 10 different concentrations in the range of 20 μM to 1 nM (20 μM, 6.7 μM, 2.2 μM, 0.74 μM, 0.25 μM, 82 nM, 27 nM, 9.2 nM, 3.1 nM and 1 nM, dilution series prepared before the assay at the level of the 100 fold conc. stock solutions by serial 1:3 dilutions) in duplicate values for each concentration and 1050 values were calculated by a 4 parameter fit using an inhouse software.

[2] = target: T2, human recombinant kinase full-length Akt2 (Homo sapiens, UniProt P31751); experiment: Akt2 kinase assay (TR-FRET); type: biochemical; details: Akt2 activated by PDK1, 10 μM ATP, 1 μM peptide substrate, 60 min at 22° C.; read-out: IC50 Akt2 (Biological Assay 2.0)
T2 construct: human recombinant kinase full-length Akt2; His; purchased Invitrogen PV 3975; host or cells: insect cells
T2 sequence (P31751 whole entry): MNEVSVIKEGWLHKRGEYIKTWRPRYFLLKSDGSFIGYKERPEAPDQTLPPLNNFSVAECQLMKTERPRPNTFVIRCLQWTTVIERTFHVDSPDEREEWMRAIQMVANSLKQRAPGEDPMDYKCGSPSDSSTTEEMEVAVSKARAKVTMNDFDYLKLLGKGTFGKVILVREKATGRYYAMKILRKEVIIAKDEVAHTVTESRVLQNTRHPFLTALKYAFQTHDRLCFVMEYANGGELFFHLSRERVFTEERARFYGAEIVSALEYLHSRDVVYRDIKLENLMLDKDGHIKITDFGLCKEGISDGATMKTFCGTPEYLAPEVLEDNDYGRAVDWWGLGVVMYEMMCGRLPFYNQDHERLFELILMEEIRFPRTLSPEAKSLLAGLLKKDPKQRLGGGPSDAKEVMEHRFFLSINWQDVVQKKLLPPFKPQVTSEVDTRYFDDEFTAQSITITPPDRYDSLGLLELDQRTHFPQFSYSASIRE
Text: Biological Assay 2.0: Akt2 Kinase Assay
Akt2 inhibitory activity of compounds of the present invention was quantified employing the Akt2 TR-FRET assay as described in the following paragraphs.
as §1, with “His-tagged human recombinant kinase full-length Akt2 expressed in insect cells and activated by PDK1 was purchased form Invitrogen (part number PV 3975). As substrate for the kinase reaction the biotinylated peptide biotin-Ahx-KKLNRTLSFAEPG (C-terminus in amide form) was used which can be purchased e.g. from the company Biosynthan GmbH (Berlin-Buch, Germany). For” for “For”, “Akt2” for “Akt1”, “0.2” for “0.05”
as §2, with “a TR-FRET” for “a HTRF”, “inhibition).” for “inhibition). Normally test compound were tested on the same microtiter plate at 10 different concentrations in the range of 20 μM to 1 nM (20 μM, 6.7 μM, 2.2 μM, 0.74 μM, 0.25 μM, 82 nM, 27 nM, 9.2 nM, 3.1 nM and 1 nM, dilution series prepared before the assay at the level of the 100 fold conc. stock solutions by serial 1:3 dilutions) in duplicate values for each concentration and 1050 values were calculated by a 4 parameter fit using an inhouse software.”

Structure (SMILES) | IC50 [1] [nM] | IC50 [2] [nM]
Cc1ccc(-c2nc(C3CCN(Cc4ccc(-c5nc(C)n6ccnc6c5-c5ccccc5)cc4)CC3)n[nH]2)nc1C [Example 5.0, 7-(4-{4-[5-(5,6-dimethyl-pyridin-2-yl)-1H-[1,2,4]triazol-3-yl]-piperidin-1-ylmethyl}-phenyl)-5-methyl-8-phenyl-imidazo[1,2-c]pyrimidine] | 3 | 27
Cc1nc(-c2ccc(CN3CC(c4n[nH]c(-c5ccccn5)n4)C3)cc2)c(-c2ccccc2)c2nccn12 [Example 6.0, 5-methyl-8-phenyl-7-{4-[3-(5-pyridin-2-yl-1H-[1,2,4]triazol-3-yl)-azetidin-1-ylmethyl]-phenyl}-imidazo[1,2-c]pyrimidine] | 3 | 81
Cc1nc(-c2ccc(CN3CCC(c4n[nH]c(-c5cnccn5)n4)CC3)cc2)c(-c2ccccc2)c2nccn12 [Example 7.0, 5-methyl-8-phenyl-7-{4-[4-(5-pyrazin-2-yl-1H-[1,2,4]triazol-3-yl)-piperidin-1-ylmethyl]-phenyl}-imidazo[1,2-c]pyrimidine] | 12 | 334
Cc1nc(-c2ccc(CN3CCC(c4n[nH]c(-c5ncccn5)n4)CC3)cc2)c(-c2ccccc2)c2nccn12 [Example 8.0, 5-methyl-8-phenyl-7-{4-[4-(5-pyrimidin-2-yl-1H-[1,2,4]triazol-3-yl)-piperidin-1-ylmethyl]-phenyl}-imidazo[1,2-c]pyrimidine] | 14 | 414
Cc1ccc(-c2nc(C3CCN(Cc4ccc(-c5ncn6ccnc6c5-c5ccccc5)cc4)CC3)n[nH]2)nc1C [Example 10.0, 7-(4-{4-[5-(5,6-dimethyl-pyridin-2-yl)-1H-[1,2,4]triazol-3-yl]-piperidin-1-ylmethyl}-phenyl)-8-phenyl-imidazo[1,2-c]pyrimidine] | 7 | 38
c1ccc(-c2c(-c3ccc(CN4CCC(c5n[nH]c(-c6cnccn6)n5)CC4)cc3)ncn3ccnc23)cc1 [Example 11.0, 8-phenyl-7-{4-[4-(5-pyrazin-2-yl-1H-[1,2,4]triazol-3-yl)-piperidin-1-ylmethyl]-phenyl}-imidazo[1,2-c]pyrimidine] | 29 | 445
Cc1cc(C)nc(-c2nc(C3CCN(Cc4ccc(-c5ncn6ccnc6c5-c5ccccc5)cc4)CC3)n[nH]2)c1 [Example 14.0, 7-(4-{4-[5-(4,6-dimethyl-pyridin-2-yl)-1H-[1,2,4]triazol-3-yl]-piperidin-1-ylmethyl}-phenyl)-8-phenyl-imidazo[1,2-c]pyrimidine] | 7 | 16

More lines, now with the values ahead:

IC50 [1] [nM] | IC50 [2] [nM] | Structure (SMILES)
18 | 185 | Brc1ccc(-c2nc(C3CCN(Cc4ccc(-c5ncn6ccnc6c5-c5ccccc5)cc4)CC3)n[nH]2)nc1 [Example 9.0, 7-(4-{4-[5-(5-bromo-pyridin-2-yl)-1H-[1,2,4]triazol-3-yl]-piperidin-1-ylmethyl}-phenyl)-8-phenyl-imidazo[1,2-c]pyrimidine]
19 | 98 | Fc1ccc(-c2nc(C3CCN(Cc4ccc(-c5ncn6ccnc6c5-c5ccccc5)cc4)CC3)n[nH]2)nc1 [Example 11.1, 7-(4-{4-[5-(5-fluoro-pyridin-2-yl)-1H-[1,2,4]triazol-3-yl]-piperidin-1-ylmethyl}-phenyl)-8-phenyl-imidazo[1,2-c]pyrimidine]
8 | 50 | Cc1ccc(-c2nc(C3CCN(Cc4ccc(-c5ncn6ccnc6c5-c5ccccc5)cc4)CC3)n[nH]2)nc1 [Example 12.0, 7-(4-{4-[5-(5-methyl-pyridin-2-yl)-1H-[1,2,4]triazol-3-yl]-piperidin-1-ylmethyl}-phenyl)-8-phenyl-imidazo[1,2-c]pyrimidine]
16 | 132 | Clc1cccc(-c2nc(C3CCN(Cc4ccc(-c5ncn6ccnc6c5-c5ccccc5)cc4)CC3)n[nH]2)n1 [Example 13.0, 7-(4-{4-[5-(6-chloro-pyridin-2-yl)-1H-[1,2,4]triazol-3-yl]-piperidin-1-ylmethyl}-phenyl)-8-phenyl-imidazo[1,2-c]pyrimidine]
